The source of these data is US8859584B2, “TRPV1 antagonists” (AbbVie Inc., priority 2011, dated 2014).

Data set [1] concerns the target T1, human TRPV1 (Homo sapiens, UniProt Q8NER1).
T1 construct: expressed in transfected cells
Kind of data set: Capsaicin Activation Assay (FLIPR intracellular Ca2+, recombinant HEK293 cells). The class given is cell-based. As to conditions: recombinant HEK293 cells expressing hTRPV1; 50 nM capsaicin; read-out: human TRPV1 capsaicin IC50.

The target of data set [2] is T1, human TRPV1. Kind of data set: Acid Activation Assay (pH 5.0, FLIPR intracellular Ca2+, recombinant HEK293 cells). The class given is cell-based. As to conditions: percentage of maximal pH 5.0-induced response remaining; HEK293 hTRPV1; max concentration 37.5 μM. The procedure, abridged: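 HEK293 cells stably expressing recombinant hTRPV1 were loaded with calcium dye for 90-120 min at 25° C and pre-treated with compound for 3 min before a pH 5.0 (DPBS/MES) challenge. Peak FLIPR fluorescence over baseline is given as percentage of the maximal pH 5.0-induced response.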

The subject of data set [3] is rats. Kind of data set: Rat Acute Capsaicin-Induced Flinching Behavior. The class given is in vivo. The conditions noted are these: 100 μmol/kg oral, capsaicin 2.5 μg one hour after compound, five minute observation. As for the experimental part: (iv) Rat Acute Capsaicin-Induced Flinching Behavior
Rats were placed in individual observation cages. Following an acclimation period of 30 minutes, selected compounds were administered orally at a dose of 100 μmol/kg orally in a vehicle (10% ethanol/20% Tween 80/70% polyethylene glycol-400) at a volume of 2 mL/kg. One hour after administration of the compound, 2.5 μg of capsaicin in a 10 μL solution of 10% ethanol/90% hydroxypropyl-β-cyclodextrin was injected subcutaneously into the dorsal aspect of the right hind paw. The observation cage was then suspended above mirrors in order to facilitate observation. […] The number of flinching behaviors of the injured paw was recorded during the five minute observation period (Gilchrist, H. D.; Allard, B. L.; Simone, D. A.; Enhanced withdrawal responses to heat and mechanical stimuli following intraplantar injection of capsaicin in rats. Pain, 1996, 67, 179-188). The percent reduction in the number of flinching behaviors produced from oral administration of the test compounds relative to control-treated animals (% effect) is reported in Table 2.

Data set [4] deals with rats. Kind of data set: Sodium Iodoacetate-Induced Knee Joint Osteoarthritic Pain Model (hind limb grip force). The class given is in vivo. As to conditions: rat, 1 hour after administration, 20 days after sodium iodoacetate, read-out: % effect (% return to normalcy of hind limb grip force); for inhibition in vivo at 100 µmol/kg: 100 μmol/kg po single dose. On the procedure:
(v) Sodium Iodoacetate-Induced Knee Joint Osteoarthritic Pain Model
Unilateral knee joint osteoarthritis was induced in the rats by a single intra-articular (i.a.) injection of sodium iodoacetate (3 mg in 0.05 mL sterile isotonic saline) into the right knee joint cavity under light isoflurane anesthesia using a 26G needle. […] Pain behavioral assessment of hind limb grip force was conducted by recording the maximum compressive force exerted on the hind limb strain gauge setup, in a commercially available grip force measurement system (Columbus Instruments, Columbus, Ohio). The grip force data was converted to a maximum hindlimb cumulative compressive force (CFmax) (gram force)/kg body weight for each animal. The analgesic effects of test compounds were determined 20 days following the i.a. injection of sodium iodoacetate. The vehicle control group for each compound being tested was assigned 0% whereas the age matched naïve group was assigned as being 100% (normal). The % effect for each dose group was then expressed as % return to normalcy compared to the naïve group. Test compounds were administered orally in 10% ethanol/20% Tween 80/70% polyethylene glycol-400 vehicle at a volume of 2 mL/kg. The assessment of the analgesic effects of test compounds was made 1 hour following oral administration. The assessment of the analgesic effects of test compounds can be made following a single dose or following repeated administration wherein the frequency of dosing is 1 to 2 times daily. The duration of such repeated daily dosing may last for any time greater than one day. A typical duration of repeated daily dosing is about 5 days to about 12 days.

Data set [5] concerns rats. Briefly: Rat Tail Immersion (noxious thermosensation, 55° C. water bath). The conditions noted are these: morphine 6 mg/kg i.p. in saline, relative to vehicle control. The class given is in vivo. As for the experimental part:
(iii) Rat Tail Immersion Protocol:
Compounds were tested for their effects on noxious thermosensation using the tail immersion assay. Testing was performed one hour following oral administration of 100 μmol/kg of the compound in 10% ethanol/20% Tween-80/70% PEG-400 (2 mL/kg). Mophine (6 mg/kg) was administered interperitoneally (i.p.) using saline (2 mL/kg) as the vehicle. For testing, a circulating water bath was heated to 55° C. Thirty to sixty minutes post dosing, the rats were handled for a few seconds to calm them down and then cupped with their back against the testers hand at a slight angle with head facing away from tester. With rat in one hand and a 0.01 second stopwatch in the other hand, the tail was quickly immersed 6-8 cm in water bath or to a distance leaving 2-3 cm of tail out of water. The timer was started simultaneously. […] This response latency (in seconds) was recorded. Process was repeated 3 times with 3-4 minutes between readings for a final average.
For a given compound, a percent increase in the average response latency (in seconds) for tail withdrawal relative to a vehicle control was determined % increase=[(tc−tv)/tv]×100% tc=response time (in seconds) with oral dosing of compounds tv=response time (in seconds) with oral dosing of vehicle […]
Table 1 reports the % increase in tail withdrawal latency measured for the compounds tested. […]

T1 sequence (Q8NER1 whole entry): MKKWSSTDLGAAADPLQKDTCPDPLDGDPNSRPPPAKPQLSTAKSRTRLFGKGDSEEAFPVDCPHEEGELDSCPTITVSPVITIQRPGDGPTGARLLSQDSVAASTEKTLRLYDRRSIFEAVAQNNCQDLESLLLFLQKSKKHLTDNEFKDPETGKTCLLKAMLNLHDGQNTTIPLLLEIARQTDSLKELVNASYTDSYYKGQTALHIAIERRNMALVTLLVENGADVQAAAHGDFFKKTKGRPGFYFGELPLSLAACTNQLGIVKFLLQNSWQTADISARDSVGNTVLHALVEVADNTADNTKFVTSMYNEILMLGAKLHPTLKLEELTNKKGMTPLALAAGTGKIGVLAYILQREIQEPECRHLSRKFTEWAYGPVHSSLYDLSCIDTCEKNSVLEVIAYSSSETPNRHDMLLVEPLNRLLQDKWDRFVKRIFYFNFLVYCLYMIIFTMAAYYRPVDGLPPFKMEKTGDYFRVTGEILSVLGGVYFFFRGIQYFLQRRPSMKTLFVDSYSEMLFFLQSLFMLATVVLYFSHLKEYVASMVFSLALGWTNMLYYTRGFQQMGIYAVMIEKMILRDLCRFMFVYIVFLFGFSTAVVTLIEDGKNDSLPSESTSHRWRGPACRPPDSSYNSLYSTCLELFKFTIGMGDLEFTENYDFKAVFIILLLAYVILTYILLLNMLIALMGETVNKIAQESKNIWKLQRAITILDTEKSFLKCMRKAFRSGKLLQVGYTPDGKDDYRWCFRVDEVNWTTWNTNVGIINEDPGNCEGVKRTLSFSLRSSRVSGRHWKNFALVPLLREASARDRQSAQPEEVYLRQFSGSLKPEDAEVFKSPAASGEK

As usually defined, the IC50 is the concentration that gives 50% inhibition. Consider `O=C(Nc1cccc2c1C[C@H](O)C2)N[C@@H]1CC(CF)(CF)Oc2cc(Cl)ccc21` [Example 4, 1-[(4R)-7-chloro-2,2-bis(fluoromethyl)-3,4-dihydro-2H-chromen-4-yl]-3-[(2R)-2-hydroxy-2,3-dihydro-1H-inden-4-yl]urea], for which the IC50 in data set [1] is 40 nM. In data set [2], the “human TRPV1 H+ (max % remain)” value amounted to 57%. The “% effect (percent reduction in number of flinching behaviors relative to control-treated animals)” value in data set [3] was determined as 54%. In addition, the inhibition in vivo at 100 µmol/kg in data set [4] came to 67%.

As to `CC1(C)C[C@@H](NC(=O)Nc2cccc3c2C[C@H](O)C3)c2ccc(F)c(F)c2O1` [Example 9, 1-[(4R)-7,8-difluoro-2,2-dimethyl-3,4-dihydro-2H-chromen-4-yl]-3-[(2R)-2-hydroxy-2,3-dihydro-1H-inden-4-yl]urea], in data set [1], the IC50 worked out at 60 nM. For the same compound, in data set [2], the “human TRPV1 H+ (max % remain)” value came out at 82%. The “% effect (percent reduction in number of flinching behaviors relative to control-treated animals)” value in data set [3] came out at 76%. Besides, the inhibition in vivo at 100 µmol/kg in data set [4] is 67%.

Take `CC1(C)C[C@@H](NC(=O)Nc2cccc3c2C[C@@H](O)C3)c2cccc(OC(F)(F)F)c2O1` [Example 88, 1-[(4R)-2,2-dimethyl-8-(trifluoromethoxy)-3,4-dihydro-2H-chromen-4-yl]-3-[(2S)-2-hydroxy-2,3-dihydro-1H-inden-4-yl]urea]: the half-maximal inhibitory concentration (IC50) in data set [1] worked out at 16 nM. The “human TRPV1 H+ (max % remain)” value in data set [2] was 23%. Also, in data set [3], the “% effect (percent reduction in number of flinching behaviors relative to control-treated animals)” value was 69%.

Take `CN1CC[C@]23c4c5ccc(O)c4O[C@H]2[C@@H](O)C=C[C@H]3[C@H]1C5` [Morphine]: the “% Increase in Tail Withdrawal Latency” value in data set [5] was “+++ (greater than or equal to 25% increase)”.

For `O=C(Nc1cccc2c1C[C@H](O)C2)N[C@@H]1CCOc2cc(OC(F)(F)F)ccc21` [Example 14, 1-[(2R)-2-hydroxy-2,3-dihydro-1H-inden-4-yl]-3-[(4R)-7-(trifluoromethoxy)-3,4-dihydro-2H-chromen-4-yl]urea], the half-maximal inhibitory concentration (IC50) in data set [1] stood at 44 nM. Moreover, the “human TRPV1 H+ (max % remain)” value in data set [2] was found to be 48%. For the same compound, the inhibition in vivo at 30 µmol/kg in data set [4] (30 μmol/kg po single dose) is 54%.

In the case of `CC1(C)C[C@@H](NC(=O)Nc2cccc3c2C[C@@H](O)C3)c2ccc(F)c(Cl)c2O1` [Example 36, 1-[(4R)-8-chloro-7-fluoro-2,2-dimethyl-3,4-dihydro-2H-chromen-4-yl]-3-[(2S)-2-hydroxy-2,3-dihydro-1H-inden-4-yl]urea], the IC50 in data set [1] is 26 nM. Besides, the “human TRPV1 H+ (max % remain)” value in data set [2] came out at 32%. In data set [3], the “% effect (percent reduction in number of flinching behaviors relative to control-treated animals)” value is on record as 71%. Besides, in data set [4], the inhibition in vivo at 100 µmol/kg came out at 46%.

On to `O=C(Nc1cccc2c1C[C@H](O)C2)N[C@@H]1CC(CF)(CF)Oc2cc(C(F)(F)F)ccc21` [Example 7, 1-[(4R)-2,2-bis(fluoromethyl)-7-(trifluoromethyl)-3,4-dihydro-2H-chromen-4-yl]-3-[(2R)-2-hydroxy-2,3-dihydro-1H-inden-4-yl]urea], for which the concentration for half-maximal inhibition (IC50) in data set [1] was found to be 47 nM. Besides, in data set [2], the “human TRPV1 H+ (max % remain)” value is 48%. Further, the “% effect (percent reduction in number of flinching behaviors relative to control-treated animals)” value in data set [3] turned out to be 94%. Besides, the inhibition in vivo at 100 µmol/kg in data set [4] was determined as 68%.

Take `CC1(C)C[C@@H](NC(=O)Nc2cccc3c2C[C@H](O)C3)c2ccc(F)cc2O1` [Example 5, 1-[(4R)-7-fluoro-2,2-dimethyl-3,4-dihydro-2H-chromen-4-yl]-3-[(2R)-2-hydroxy-2,3-dihydro-1H-inden-4-yl]urea]: the half-inhibitory concentration (IC50) in data set [1] was 32 nM. Also, the “human TRPV1 H+ (max % remain)” value in data set [2] turned out to be 76%. Moreover, in data set [4], the inhibition in vivo at 100 µmol/kg worked out at 57%.

On to `CC1(C)C[C@@H](NC(=O)Nc2cccc3c2C[C@H](O)C3)c2ccc(F)c(Cl)c2O1` [Example 12, 1-[(4R)-8-chloro-7-fluoro-2,2-dimethyl-3,4-dihydro-2H-chromen-4-yl]-3-[(2R)-2-hydroxy-2,3-dihydro-1H-inden-4-yl]urea], for which the half-inhibitory concentration (IC50) in data set [1] is 36 nM. For the same compound, the “human TRPV1 H+ (max % remain)” value in data set [2] is 77%. In data set [3], the “% effect (percent reduction in number of flinching behaviors relative to control-treated animals)” value was 53%.
